Measured values reported in ChEMBL document CHEMBL1759848, “[11C]sorafenib: radiosynthesis and preliminary PET study of brain uptake in P-gp/Bcrp knockout mice” (Bioorg Med Chem Lett, 2011).

Assays:
Type in all cases: ADME, tissue-based
[1] = tested on: Brain; assay: Drug uptake in P-gp/Bcrp knockout mouse brain after 60 mins; details: in vivo, 1 h
[2] = tested on: Brain; assay: Drug uptake in P-gp/Bcrp knockout mouse brain by Positron emission tomography; details: in vivo
[3] = tested on: Brain; assay: Drug uptake in wild-type mouse brain by Positron emission tomography; details: in vivo
[4] = tested on: Brain; assay: Drug uptake in wild-type mouse brain after 60 mins; details: in vivo, 1 h

CNC(=O)c1cc(Oc2ccc(N[11C](=O)Nc3ccc(Cl)c(C(F)(F)F)c3)cc2)ccn1 [[11C]-SORAFENIB] was tested, and the SUV [1] was 6.72, the Drug uptake [2] was “Active” and the Drug uptake [3] was “Active”. The SUV [4] was 18.83.
